Measurements reported in US10485235B2, “Aryloxypyrimidinyl ethers as herbicides” (FMC Corporation, priority 2015, dated 2019).

Legend:
Assay type in all cases: in vivo
[1] = tested on: barnyardgrass (Echinochloa crus-galli); test: Test A preemergence, barnyardgrass; conditions: Preemergence, 0 to 100 scale (0 no effect, 100 complete control)
Procedure, shortened: (§1)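 Compounds, formulated in a surfactant-containing solvent mixture that is non-phytotoxic, are sprayed onto soil after seeding (preemergence) or onto young plants, one to two leaves and 2 to 10 cm high (postemergence). Response is scored visually after around 10 days, where 0 means no effect and 100 means complete control.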

[2] = tested on: kochia (Kochia scoparia); test: Test A preemergence, kochia; conditions: Preemergence, 0 to 100 scale (0 no effect, 100 complete control)
Procedure, shortened: as §1

[3] = tested on: ragweed (common ragweed, Ambrosia elatior); test: Test A preemergence, ragweed; conditions: Preemergence, 0 to 100 scale (0 no effect, 100 complete control)
Procedure, shortened: as §1

[4] = tested on: ryegrass, Italian (Italian ryegrass, Lolium multiflorum); test: Test A preemergence, Italian ryegrass; conditions: Preemergence, 0 to 100 scale (0 no effect, 100 complete control)
Procedure, shortened: as §1

[5] = tested on: foxtail, giant (giant foxtail, Setaria faberii); test: Test A preemergence, giant foxtail; conditions: Preemergence, 0 to 100 scale (0 no effect, 100 complete control)
Procedure, shortened: as §1

[6] = tested on: pigweed (Amaranthus retroflexus); test: Test A preemergence, pigweed; conditions: Preemergence, 0 to 100 scale (0 no effect, 100 complete control)
Procedure, shortened: as §1

[7] = tested on: barnyardgrass (Echinochloa crus-galli); test: Test A postemergence, barnyardgrass
Procedure, shortened: as §1

[8] = tested on: kochia (Kochia scoparia); test: Test A postemergence, kochia
Procedure, shortened: as §1

[9] = tested on: ragweed (common ragweed, Ambrosia elatior); test: Test A postemergence, ragweed
Procedure, shortened: as §1

[10] = tested on: ryegrass, Italian (Italian ryegrass, Lolium multiflorum); test: Test A postemergence, Italian ryegrass
Procedure, shortened: as §1

[11] = tested on: foxtail, giant (giant foxtail, Setaria faberii); test: Test A postemergence, giant foxtail
Procedure, shortened: as §1

[12] = tested on: pigweed (Amaranthus retroflexus); test: Test A postemergence, pigweed
Procedure, shortened: as §1

[13] = tested on: wheat (Triticum aestivum); test: Test A postemergence, wheat
Procedure, shortened: as §1

[14] = tested on: corn (Zea mays); test: Test A postemergence, corn
Procedure, shortened: as §1

[15] = tested on: blackgrass (Alopecurus myosuroides); test: Test A postemergence, blackgrass
Procedure, shortened: as §1

[16] = tested on: galium (catchweed bedstraw, Galium aparine); test: Test A postemergence, galium
Procedure, shortened: as §1

[17] = tested on: rice (Oryza sativa); test: Test B flooded paddy test, rice; conditions: 250 g ai/ha, Flood; visual rating after 13 to 15 days; scale 0 to 100, 0 is no effect, 100 is complete control
Procedure, shortened: (§2)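 Seedlings at the 2-leaf stage are flooded to 3 cm and treated via the paddy water. Greenhouse plants are compared with controls after 13 to 15 days and given a 0 (no effect) to 100 (complete control) rating.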

[18] = tested on: sedge, umbrella (small-flower umbrella sedge, Cyperus difformis); test: Test B flooded paddy test, umbrella sedge; conditions: 250 g ai/ha, Flood; visual rating after 13 to 15 days; scale 0 to 100, 0 is no effect, 100 is complete control
Procedure, shortened: as §2

[19] = tested on: ducksalad (Heteranthera limosa); test: Test B flooded paddy test, ducksalad; conditions: 250 g ai/ha, Flood; visual rating after 13 to 15 days; scale 0 to 100, 0 is no effect, 100 is complete control
Procedure, shortened: as §2

[20] = tested on: barnyardgrass (Echinochloa crus-galli); test: Test B flooded paddy test, barnyardgrass; conditions: 250 g ai/ha, Flood; visual rating after 13 to 15 days; scale 0 to 100, 0 is no effect, 100 is complete control
Procedure, shortened: as §2

[21] = 31 g ai/ha, postemergence, 0 to 100 scale, 0 is no effect, 100 is complete control, approximately 10 days
[22] = 125 g ai/ha, postemergence, 0 to 100 scale, 0 is no effect, 100 is complete control, approximately 10 days
[23] = Postemergence, 31 g ai/ha, 0 to 100 scale (0 no effect, 100 complete control)

Row | SMILES | Plant response rating, Barnyardgrass ([1]; 31 g ai/ha) | Plant response rating, Barnyardgrass ([1]; 125 g ai/ha) | Plant response rating, Kochia ([2]; 31 g ai/ha) | Plant response rating, Kochia ([2]; 125 g ai/ha) | Plant response rating, Ragweed ([3]; 31 g ai/ha) | Plant response rating, Ragweed ([3]; 125 g ai/ha) | Plant response rating, Ryegrass, Italian ([4]; 31 g ai/ha) | Plant response rating, Ryegrass, Italian ([4]; 125 g ai/ha) | Plant response rating, Foxtail, Giant ([5]; 31 g ai/ha) | Plant response rating, Foxtail, Giant ([5]; 125 g ai/ha) | Plant response rating, Pigweed ([6]; 31 g ai/ha) | Plant response rating, Pigweed ([6]; 125 g ai/ha) | Plant response rating, Barnyardgrass [7, 22] | Plant response rating, Kochia [8, 22] | Plant response rating, Ragweed [9, 22] | Plant response rating, Ryegrass, Italian [10, 22] | Plant response rating, Foxtail, Giant [11, 22] | Plant response rating, Pigweed [12, 22] | Plant response rating, Wheat [13, 22] | Plant response rating, Corn [14, 22] | further results
1 | N#Cc1cccc(Oc2ncc(Cl)cn2)c1OCC(=O)CCC(F)(F)F [Compound 62] | 0 | 0 | 0 | 0 | 0 | 0 | 0 | 0 | 0 | 0 | 0 | 0 | 0 | 0 | 0 | 0 | 0 | 0 | 0 | 0 | Plant response rating, Barnyardgrass [7, 21]: 0; Plant response rating, Kochia [8, 21]: 0; Plant response rating, Ragweed [9, 21]: 0; Plant response rating, Ryegrass, Italian [10, 21]: 0; Plant response rating, Foxtail, Giant [11, 21]: 0; Plant response rating, Pigweed [12, 21]: 0; Plant response rating, Wheat [13, 21]: 0; Plant response rating, Corn [14, 21]: 0; Plant response rating, Blackgrass [15, 21]: 0; Plant response rating, Blackgrass [15, 22]: 0; Plant response rating, Galium [16, 21]: 0; Plant response rating, Galium [16, 22]: 0; Plant response rating, Rice [17]: 0; Plant response rating, Sedge, Umbrella [18]: 0; Plant response rating, Ducksalad [19]: 0; Plant response rating, Barnyardgrass [20]: 0
2 | N#Cc1cccc(Oc2ncc(Cl)cn2)c1OCC(=O)C(F)(F)C(F)(F)F [Compound 74] | 0 | 30 | 0 | 0 | 0 | 0 | 0 | 0 | 0 | 70 | 60 | 80 | 20 | 20 | 20 | 0 | 40 | 70 | 0 | 20 | Plant response rating, Barnyardgrass [7, 23]: 0; Plant response rating, Kochia [8, 23]: 0; Plant response rating, Ragweed [9, 23]: 20; Plant response rating, Ryegrass, Italian [10, 23]: 0; Plant response rating, Foxtail, Giant [11, 23]: 0; Plant response rating, Pigweed [12, 23]: 20; Plant response rating, Wheat [13, 23]: 0; Plant response rating, Corn [14, 23]: 0; Plant response rating, Blackgrass [15, 22]: 0; Plant response rating, Blackgrass [15, 23]: 0; Plant response rating, Galium [16, 22]: 30; Plant response rating, Galium [16, 23]: 0; Plant response rating, Rice [17]: 0; Plant response rating, Sedge, Umbrella [18]: 0; Plant response rating, Ducksalad [19]: 0; Plant response rating, Barnyardgrass [20]: 0
3 | O=C(COc1c(Br)cccc1Oc1ncc(Cl)cn1)C(F)(F)C(F)(F)F [Compound 73] | 0 | 0 | 0 | 0 | 0 | 0 | 0 | 0 | 0 | 0 | 40 | 50 | 10 | 50 | 0 | 0 | 10 | 60 | 0 | 10 | Plant response rating, Barnyardgrass [7, 23]: 0; Plant response rating, Kochia [8, 23]: 0; Plant response rating, Ragweed [9, 23]: 0; Plant response rating, Ryegrass, Italian [10, 23]: 0; Plant response rating, Foxtail, Giant [11, 23]: 0; Plant response rating, Pigweed [12, 23]: 30; Plant response rating, Wheat [13, 23]: 0; Plant response rating, Corn [14, 23]: 0; Plant response rating, Blackgrass [15, 22]: 20; Plant response rating, Blackgrass [15, 23]: 0; Plant response rating, Galium [16, 22]: 40; Plant response rating, Galium [16, 23]: 10; Plant response rating, Rice [17]: 0; Plant response rating, Sedge, Umbrella [18]: 0; Plant response rating, Ducksalad [19]: 0; Plant response rating, Barnyardgrass [20]: 0
4 | FC(F)(F)CCCOc1c(Br)cccc1Oc1ncc(Cl)cn1 [Compound 31] | 10 | 60 | 0 | 70 | 0 | 10 | 0 | 40 | 40 | 100 | 70 | 100 | 70 | 100 | 10 | 50 | 50 | 100 | 10 | 20 | Plant response rating, Barnyardgrass [7, 21]: 20; Plant response rating, Kochia [8, 21]: 90; Plant response rating, Ragweed [9, 21]: 0; Plant response rating, Ryegrass, Italian [10, 21]: 10; Plant response rating, Foxtail, Giant [11, 21]: 20; Plant response rating, Pigweed [12, 21]: 80; Plant response rating, Wheat [13, 21]: 0; Plant response rating, Corn [14, 21]: 10; Plant response rating, Blackgrass [15, 21]: 20; Plant response rating, Blackgrass [15, 22]: 40; Plant response rating, Galium [16, 21]: 40; Plant response rating, Galium [16, 22]: 90; Plant response rating, Rice [17]: 25; Plant response rating, Sedge, Umbrella [18]: 100; Plant response rating, Ducksalad [19]: 75; Plant response rating, Barnyardgrass [20]: 25
5 | Cc1cccc(Oc2ncc(Cl)cn2)c1OCCCC#N [Compound 70] | 0 | 70 | 0 | 20 | 0 | 0 | 0 | 0 | 0 | 30 | 0 | 50 | 30 | 30 | 20 | 0 | 0 | 40 | 0 | 20 | Plant response rating, Barnyardgrass [7, 23]: 0; Plant response rating, Kochia [8, 23]: 20; Plant response rating, Ragweed [9, 23]: 0; Plant response rating, Ryegrass, Italian [10, 23]: 0; Plant response rating, Foxtail, Giant [11, 23]: 0; Plant response rating, Pigweed [12, 23]: 20; Plant response rating, Wheat [13, 23]: 0; Plant response rating, Corn [14, 23]: 0; Plant response rating, Blackgrass [15, 22]: 0; Plant response rating, Blackgrass [15, 23]: 0; Plant response rating, Galium [16, 22]: 20; Plant response rating, Galium [16, 23]: 0; Plant response rating, Rice [17]: 0; Plant response rating, Sedge, Umbrella [18]: 50; Plant response rating, Ducksalad [19]: 70; Plant response rating, Barnyardgrass [20]: 0
